Laboratory results from PubChem BioAssay AID1259411 (Chemical Carcinogenesis Research Information System (CCRIS), 2018).
The source made the active and inactive calls. No rule for the calls is given here.

System: rodent carcinogenicity bioassays, tumor incidence
Experiment: CCRIS carcinogenicity studies
Conditions: Dose: 0, Dose: 0
Summary of the method: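 NCI-built, expert-reviewed records of carcinogenicity and related test outcomes (mutagenicity, tumor promotion/inhibition) compiled from published and report sources, historical span 1985-2011, not updated.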

SMILES: OC(Cn1cncn1)(c1ccc(F)cc1)c1ccccc1F (stereo unspecified)
- carcinogen call (Species: Mouse, Strain/Sex: C57BL/10JfCD-1/Alpk (C57BL/10J)/Female (50/Group), Route: Oral, 10, 50, 200 ppm (0; 1.5; 7.5; 30 mg/kg/day) of 93% flutriafol in diet for 2 yr, study duration 2 yr, 10, 50, 200 ppm (0; 1.5; 7.5; 30 mg/kg/day) of 93% flutriafol in diet for 2 yr, study duration 2 yr): inactive; negative
- carcinogen call (Species: Mouse, Strain/Sex: C57BL/10JfCD-1/Alpk (C57BL/10J)/Male (50/Group), Route: Oral, 10, 50, 200 ppm (0; 1.5; 7.5; 30 mg/kg/day) of 93% flutriafol in diet for 2 yr, study duration 2 yr, 10, 50, 200 ppm (0; 1.5; 7.5; 30 mg/kg/day) of 93% flutriafol in diet for 2 yr, study duration 2 yr): inactive; negative
- carcinogen call (Species: Rat, Strain/Sex: Alpk:AP/Female (52/Group), Route: Oral, 20, 200, 2000 ppm (0; 1; 10; 100 mg/kg/day) of 93% flutriafol in diet for 104 wk, study duration 104 wk, 20, 200, 2000 ppm (0; 1; 10; 100 mg/kg/day) of 93% flutriafol in diet for 104 wk, study duration 104 wk): inactive; negative
- carcinogen call (Species: Rat, Strain/Sex: Alpk:AP/Male (52/Group), Route: Oral, 20, 200, 2000 ppm (0; 1; 10; 100 mg/kg/day) of 93% flutriafol in diet for 104 wk, study duration 104 wk, 20, 200, 2000 ppm (0; 1; 10; 100 mg/kg/day) of 93% flutriafol in diet for 104 wk, study duration 104 wk): inactive; negative

SMILES: C=CC(=O)OCCCC
- carcinogen call (Species: MOUSE, Strain/Sex: C3H/MALE, Route: DERMAL, 0.2 MG IN 25 µL ACETONE 3/WK FOR LIFESPAN (STUDY DURATION: LIFESPAN)): inactive; negative
- carcinogen call (Species: RAT, Strain/Sex: SPRAGUE-DAWLEY/FEMALE, Route: INHALATION, 15, 45, 135 PPM 6 HR/D 5 D/WK FOR 24 MO (STUDY DURATION: 130 WK), 15, 45, 135 PPM 6 HR/D 5 D/WK FOR 24 MO (STUDY DURATION: 130 WK)): inactive; negative
- carcinogen call (Species: RAT, Strain/Sex: SPRAGUE-DAWLEY/MALE, Route: INHALATION, 15, 45, 135 PPM 6 HR/D 5 D/WK FOR 24 MO (STUDY DURATION: 130 WK), 15, 45, 135 PPM 6 HR/D 5 D/WK FOR 24 MO (STUDY DURATION: 130 WK)): inactive; negative

SMILES: CS(=O)CC(=O)c1ccccn1 (stereo unspecified)
- carcinogen call (Species: MOUSE, Strain/Sex: B6C3F1/FEMALE, Route: ORAL, 40, 240, 600 MG/KG IN DIET FOR 80 WK (STUDY DURATION: 80 WK), 40, 240, 600 MG/KG IN DIET FOR 80 WK (STUDY DURATION: 80 WK), Tumor Site: Type of Lesion: LUNG: ALVEOLOGENIC ADENOCARCINOMA): active; positive
- carcinogen call (Species: MOUSE, Strain/Sex: CF1/MALE, Route: ORAL, 40, 240, 600 MG/KG IN DIET FOR 80 WK (STUDY DURATION: 80 WK), 40, 240, 600 MG/KG IN DIET FOR 80 WK (STUDY DURATION: 80 WK)): inactive; negative
- carcinogen call (Species: RAT, Strain/Sex: WISTAR/FEMALE, Route: ORAL, 40, 240, 600 MG/KG IN DIET FOR 104 WK (STUDY DURATION: 104 WK), 40, 240, 600 MG/KG IN DIET FOR 104 WK (STUDY DURATION: 104 WK)): inactive; negative
- carcinogen call (Species: RAT, Strain/Sex: WISTAR/MALE, Route: ORAL, 40, 240, 600 MG/KG IN DIET FOR 104 WK (STUDY DURATION: 104 WK), 40, 240, 600 MG/KG IN DIET FOR 104 WK (STUDY DURATION: 104 WK), Tumor Site: Type of Lesion: LIVER: HEPATOCELLULAR ADENOMA): active; positive

SMILES: CC(C)O
- carcinogen call (Species: MOUSE, Strain/Sex: CD-1/FEMALE, Route: INHALATION, 500, 2500, 5000 PPM 6 HR/D 5 D/WK FOR 78 WK (STUDY DURATION: 78 WK), 500, 2500, 5000 PPM 6 HR/D 5 D/WK FOR 78 WK (STUDY DURATION: 78 WK)): inactive; negative
- carcinogen call (Species: MOUSE, Strain/Sex: CD-1/MALE, Route: INHALATION, 500, 2500, 5000 PPM 6 HR/D 5 D/WK FOR 78 WK (STUDY DURATION: 78 WK), 500, 2500, 5000 PPM 6 HR/D 5 D/WK FOR 78 WK (STUDY DURATION: 78 WK)): inactive; negative
- carcinogen call (Species: RAT, Strain/Sex: F344/FEMALE, Route: INHALATION, 500, 2500, 5000 PPM 6 HR/D 5 D/WK FOR 104 WK (STUDY DURATION: 104 WK), 500, 2500, 5000 PPM 6 HR/D 5 D/WK FOR 104 WK (STUDY DURATION: 104 WK)): inactive; negative
- carcinogen call (Species: RAT, Strain/Sex: F344/MALE, Route: INHALATION, 500, 2500, 5000 PPM 6 HR/D 5 D/WK FOR 104 WK (STUDY DURATION: 104 WK), 500, 2500, 5000 PPM 6 HR/D 5 D/WK FOR 104 WK (STUDY DURATION: 104 WK)): inactive; negative

SMILES: CN(CCC=O)N=O
- carcinogen call (Species: RAT, Strain/Sex: F344/MALE, Route: SUBCUTANEOUS, 6.57 MG (0.057 MMOL) IN 0.3 ML TRIOCTANOIN 3 D/WK FOR 15 WK (STUDY DURATION: 100 WK), Tumor Site: Type of Lesion: NASAL CAVITY: PAPILLOMA, LIVER: ADENOMA, LUNG: ADENOMA, Tumor Site: Type of Lesion: NASAL CAVITY: PAPILLOMA, LIVER: ADENOMA, LUNG: ADENOMA): active; positive

SMILES: CC(C)C=O
- carcinogen call (Species: MOUSE, Strain/Sex: B6C3F1/FEMALE, Route: INHALATION, 500, 1000, 2000 PPM 6 HR/D 5 D/WK FOR 105 WK (STUDY DURATION: 105 WK), 500, 1000, 2000 PPM 6 HR/D 5 D/WK FOR 105 WK (STUDY DURATION: 105 WK)): inactive; negative
- carcinogen call (Species: MOUSE, Strain/Sex: B6C3F1/MALE, Route: INHALATION, 500, 1000, 2000 PPM 6 HR/D 5 D/WK FOR 105 WK (STUDY DURATION: 105 WK), 500, 1000, 2000 PPM 6 HR/D 5 D/WK FOR 105 WK (STUDY DURATION: 105 WK)): inactive; negative
- carcinogen call (Species: RAT, Strain/Sex: F344/FEMALE, Route: INHALATION, 500, 1000, 2000 PPM 6 HR/D 5 D/WK FOR 105 WK (STUDY DURATION: 105 WK), 500, 1000, 2000 PPM 6 HR/D 5 D/WK FOR 105 WK (STUDY DURATION: 105 WK)): inactive; negative
- carcinogen call (Species: RAT, Strain/Sex: F344/MALE, Route: INHALATION, 500, 1000, 2000 PPM 6 HR/D 5 D/WK FOR 105 WK (STUDY DURATION: 105 WK), 500, 1000, 2000 PPM 6 HR/D 5 D/WK FOR 105 WK (STUDY DURATION: 105 WK)): inactive; negative

SMILES: Cc1nc(N)cc2[nH]c3ccccc3c12
- carcinogen call (Species: MOUSE, Strain/Sex: CDF1/FEMALE, Route: ORAL, 200 PPM IN DIET FOR 621 D, Tumor Site: Type of Lesion: LIVER: HEPATOCELLULAR CARCINOMA): active; positive
- carcinogen call (Species: MOUSE, Strain/Sex: DDY/FEMALE, Route: BLADDER IMPLANT, 5% IN PARAFFIN PELLET (STUDY DURATION: 40 WK), Tumor Site: Type of Lesion: URINARY BLADDER: TRANSITIONAL CELL CARCINOMA): active; positive
- carcinogen call (Species: RAT, Strain/Sex: F344/FEMALE, Route: ORAL, 30, 100 PPM IN DIET FOR 112 WK (STUDY DURATION: 112 WK), 30, 100 PPM IN DIET FOR 112 WK (STUDY DURATION: 112 WK), Tumor Site: Type of Lesion: MAMMARY GLAND: FIBROADENOMA OR FIBROMA, HEMATOPOIETIC SYSTEM: MALIGNANT LYMPHOMA, CLITORAL GLAND: ADENOMA, Tumor Site: Type of Lesion: MAMMARY GLAND: FIBROADENOMA OR FIBROMA, HEMATOPOIETIC SYSTEM: MALIGNANT LYMPHOMA, CLITORAL GLAND: ADENOMA): active; positive
- carcinogen call (Species: RAT, Strain/Sex: F344/MALE, Route: ORAL, 30, 100 PPM IN DIET FOR 112 WK (STUDY DURATION: 112 WK), 30, 100 PPM IN DIET FOR 112 WK (STUDY DURATION: 112 WK), Tumor Site: Type of Lesion: LIVER: HEPATOCELLULAR ADENOMA, URINARY BLADDER: TRANSITIONAL CELL PAPILLOMA, MAMMARY GLAND: FIBROADENOMA OR FIBROMA, Tumor Site: Type of Lesion: LIVER: HEPATOCELLULAR ADENOMA, URINARY BLADDER: TRANSITIONAL CELL PAPILLOMA, MAMMARY GLAND: FIBROADENOMA OR FIBROMA): active; positive

SMILES: O[C@H]1[C@H]2O[C@H]2C=C[C@@H]1O
- carcinogen call (Species: MOUSE, Strain/Sex: SWISS/FEMALE, Route: INTRAPERITONEAL, 13.7 UMOL ADMINISTERED AS 3 UNEQUAL DOSES (1/7, 2/7, AND 4/7 OF THE TOTAL DOSE) OVER A 2-WK PERIOD (STUDY DURATION: 2, Tumor Site: Type of Lesion: LUNG: ADENOMA): active; positive
- carcinogen call (Species: MOUSE, Strain/Sex: SWISS/MALE, Route: INTRAPERITONEAL, 13.7 UMOL ADMINISTERED AS 3 UNEQUAL DOSES (1/7, 2/7, AND 4/7 OF THE TOTAL DOSE) OVER A 2-WK PERIOD (STUDY DURATION: 2, Tumor Site: Type of Lesion: LUNG: ADENOMA): active; positive
